“Also recorded” adds a separate entry of the source.
Columns and labels:
Assay type in all cases: cell-based
[1] = tested on: FGF-1-induced differentiation of human subcutaneous preadipocytes; experiment: PLC inhibition of FGF-1-induced differentiation (G3PDH activity); conditions: inhibitor present during replication phase, differentiation phase or both, SFM including rosiglitazone
Procedure: Human subcutaneous preadipocytes were isolated and subcultured in SCM in the presence and absence of FGF-1 with and without the PLC inhibitor U-73122 (Calbiochem). Cells were then allowed to reach confluence and differentiated using the standard chemically-modified SFM including rosiglitazone in the presence and absence of FGF1 with and without U-73122. Differentiation was assessed by G3PDH activity.

[2] = tested on: human omental and subcutaneous preadipocytes; experiment: Differentiation of human preadipocytes in serum-containing medium (cytoplasmic lipid accumulation); conditions: subcultured in SCM+FGF-1, differentiated in SCM plus insulin and (days 1-3) dexamethasone and rosiglitazone; vs SCM alone
From the text: A standard requirement of human preadipocyte differentiation in vitro is the obligatory withdrawal of serum. This contrasts with the murine adipocyte cell lines (e.g., 3T3-L1) that have high differentiation potential in SCM. It is assumed that the culture system developed for the human cells either induces down-regulation of factors necessary for differentiation, or promotes the expression of anti-differentiative factors (or both). In these experiments human omental and subcutaneous preadipocytes were isolated and subcultured in the presence of FGF-1. Cells were then differentiated in SCM plus insulin and (days 1-3) dexamethasone and rosiglitazone.

[3] = tested on: subcutaneous human preadipocytes gene expression; experiment: Microarray analysis of human preadipocyte gene expression (Affymetrix); conditions: confluent preadipocytes in SCM+FGF1 vs SCM; change of at least 50% (CV<5%)
Procedure: Total RNA was isolated from confluent subcutaneous human preadipocytes isolated and grown in either SCM (control) or SCM+FGF1. cRNA was prepared and hybridized to chips and subsequently analyzed using the Affymetrix® system. Each treatment was represented by duplicate samples and two independent experiments were performed. Gene expression was considered to be influenced by FGF-1 if expression was consistently (CV<5%) increased or reduced by at least 50%.

[4] = tested on: human preadipocytes (subcutaneous and omental); experiment: Preadipocyte proliferation assay (formazan/MTS colorimetric assay); conditions: for proliferation of human preadipocytes in response to growth factor: SCM + growth factors at 1 ng/mL for 48 hrs, relative to SCM control, MTS assay
Procedure: Subcutaneous and omental preadipocytes and human skin fibroblasts are plated separately at about 1×10^3 cells/well (subconfluent) in 96-well plates in DMEM/Ham's F12 1:1 plus 10% FCS (PA growth medium) and allowed to adhere at 37° C., 5% CO2 for 16-20 hrs. The medium is then changed to EC growth medium which is conditioned (see above) by exposure to either confluent subcutaneous or omental MVEC, human skin fibroblasts (HSF), or wells containing no cells (blank control) (each treatment is done in quadruplicate). In separate experiments subcutaneous and omental PAs are plated as above and subsequently treated with either S MVEC, O MVEC, human dermal EC(CADMEC) conditioned media, fresh EC growth medium, or blank control. After 48 hrs, preadipocyte cell number is assessed using a formazan colorimetric assay (Promega). The water soluble tetrazolium salt 3-(4,5-dimethylthiazol-2-yl)-5-(3-carboxymethoxyphenyl)-2-(4-sulfophenyl)-2H-tetrazolium (MTS) is added to each well at a concentration of 200 μg/mL. After incubation at 37° C. for 4 hrs, absorbance at 490 nm is measured using a Bio-Rad 3550 microplate reader. The validity of this assay is tested in two ways; 1) preadipocytes were plated at 250; 500; 1000; 2000; 4000 cells per well (in quadruplicate) and absorbance is measured at 490 nm; 2) after measurement at A490 nm the cells are subsequently stained with propidium iodide and direct cell counts carried out using fluorescence microscopy.
Preadipocytes were isolated and plated in 96-well plates at 500 cells/well (sub-confluent) in serum containing medium for 12-18 hrs to allow adherence. Cells were then incubated in SCM+growth factors at 1 ng/mL for 48 hrs and a MTS proliferation assay (Promega) was performed.

[5] = tested on: PLCγ2; experiment: PLCγ expression in human preadipocytes (indirect immunofluorescence, Western blot); conditions: grown to confluence in SCM + FGF-1 vs SCM alone; immunofluorescence and Western blot
Procedure: Expression of phospholipase Cγ2 (PLCγ2) protein is analyzed using Western blotting with immunofluorescent labeling procedures using a monoclonal anti-PLCγ2 antibody (Santa Cruz sc-5283).
Human preadipocytes were cultured in SCM+/−FGF-1 in 24-well plates. PLCγ expression was examined by indirect immuno-fluorescence. Non-immune primary and secondary antibody-only controls gave no staining.

[6] = tested on: human preadipocytes (omental and subcutaneous); experiment: Preadipocyte differentiation assessed by G3PDH activity; conditions: for adipogenic effect of FGF present during replication and/or differentiation (combination treatments): SCM +/- FGF during replication, SFM+rosiglitazone +/- FGF during differentiation, G3PDH activity; for preadipocyte differentiation / adipogenic effect (summary statements): human preadipocytes cultured with the growth factor; for differentiation of human preadipocytes after exposure to growth factor or MVEC-conditioned medium during subculture: subcultured up to 2 months with growth factor or EC-DMEM, differentiated in serum-free medium including 0.10M Rosiglitazone, G3PDH assay at day 21
Procedure: Activity is assessed as previously described (Adams et al. J Clin Invest 100: 3149-53 1998) (Hutley et al in Primary Mesenchymal Cells 1st ed. Kluwer Academic 5: 173-87 2001).
For differentiation experiments, preadipocytes were isolated and subcultured in endothelial cell-conditioned medium (EC-DMEM) or in the presence of growth factor for up to 2 months and then allowed to reach confluence in 6-well plates. Cells were then differentiated in serum-free, chemically modified differentiation medium including 0.10M Rosiglitazone. Differentiation was assessed at day 21 using a standard G3PDH assay.
Human omental and subcutaneous preadipocytes were isolated and subcultured in SCM in the presence and absence of FGF-1 or FGF-2. Upon reaching confluence, the cells were differentiated in standard chemically modified SFM+rosiglitazone in the presence and absence of FGF-1 or FGF-2. Differentiation was assessed by G3PDH activity. […] Presence throughout both processes was additive.

Compound | FGF-1-induced differentiation in the presence of PLC inhibitor [1] | differentiation in the presence of serum (cytoplasmic lipid accumulation) [2] | C/EBPα gene expression [3] | FGFR-1 gene expression [3] | FGFR-2 gene expression [3] | FGFR-3 gene expression [3] | PLCγ2 gene expression [3] | PPARγ gene expression [3] | proliferation of human preadipocytes in response to growth factor [4] | preadipocyte growth and replication (summary statements) ([4]; human preadipocytes cultured with the growth factor) | PLCγ2 protein expression in human preadipocytes [5] | differentiation potential of preadipocytes grown with purified FGF-1 ([6]; FGF-1 present from the time of isolation, compared with absence of FGF-1 or other MVEC-derived factors, data not shown) | adipogenic effect of FGF present during replication and/or differentiation (combination treatments) [6] | preadipocyte differentiation / adipogenic effect (summary statements) [6] | differentiation of human preadipocytes after exposure to growth factor or MVEC-conditioned medium during subculture [6]
COc1ccc2c(c1)CC[C@@H]1[C@@H]2CC[C@]2(C)[C@@H](NCCCCCCN3C(=O)C=CC3=O)CC[C@@H]12 [U-73122] | significantly impaired |  |  |  |  |  |  |  |  |  |  |  |  |  | 
FGF-1: acidic fibroblast growth factor (aFGF), also known as FGF-1 |  | significant differentiation | upregulation | Up-regulation | Up-regulation | down-regulation | Increased expression | upregulation | marked increase in proliferation | markedly promoted their growth and replication; also recorded: promotes human preadipocyte replication | increased | similar, but not additive, increase in differentiation potential | adipogenic if present either during replication or during differentiation; also recorded: greater adipogenic effect than FGF-2 | significant positive effect on the differentiation; also recorded: dramatically increases potential for subsequent differentiation | more pronounced effect than FGF-2; also recorded: marked increase in differentiation
FGF-2: basic FGF (also known as FGF-2) |  |  |  |  |  |  |  |  | marked increase in proliferation |  |  |  | adipogenic if present either during replication or during differentiation | pro-adipogenic effect | greater that the effect seen with IGF-1; also recorded: marked increase in differentiation

From patent US20140221455A1, “DIFFERENTIATION MODULATING AGENTS AND USES THEREFOR” (Verva Pharmaceuticals, Inc., priority 2002, published 2014)
